Laboratory results from ChEMBL document CHEMBL5726454, “Protein tyrosine kinase modulators and methods of use” (2017).

Target: ALK tyrosine kinase receptor (Homo sapiens, UniProt Q9UM73)
Assay: 2.5 uL-4x Test Compound or 100 nL 100x plus 2.4 uL kinase buffer; 2. 5 uL-2x Peptide/Kinase Mixture; 3. 2.5 uL-4xATP Solution; 4. 30-second plate shake; 5. 60-minute Kinase Reaction incubation at room temperature; 6. 5 uL-Development Reagent Solution; 7. 30-second plate shake; 8. 60-minute Development Reaction incubation at room temperature; 9. […] After the 1 hour Kinase Reaction incubation, 5 uL of a 1:256 dilution of Development Reagent B is added.

Chain of ALK tyrosine kinase receptor (Q9UM73 whole entry): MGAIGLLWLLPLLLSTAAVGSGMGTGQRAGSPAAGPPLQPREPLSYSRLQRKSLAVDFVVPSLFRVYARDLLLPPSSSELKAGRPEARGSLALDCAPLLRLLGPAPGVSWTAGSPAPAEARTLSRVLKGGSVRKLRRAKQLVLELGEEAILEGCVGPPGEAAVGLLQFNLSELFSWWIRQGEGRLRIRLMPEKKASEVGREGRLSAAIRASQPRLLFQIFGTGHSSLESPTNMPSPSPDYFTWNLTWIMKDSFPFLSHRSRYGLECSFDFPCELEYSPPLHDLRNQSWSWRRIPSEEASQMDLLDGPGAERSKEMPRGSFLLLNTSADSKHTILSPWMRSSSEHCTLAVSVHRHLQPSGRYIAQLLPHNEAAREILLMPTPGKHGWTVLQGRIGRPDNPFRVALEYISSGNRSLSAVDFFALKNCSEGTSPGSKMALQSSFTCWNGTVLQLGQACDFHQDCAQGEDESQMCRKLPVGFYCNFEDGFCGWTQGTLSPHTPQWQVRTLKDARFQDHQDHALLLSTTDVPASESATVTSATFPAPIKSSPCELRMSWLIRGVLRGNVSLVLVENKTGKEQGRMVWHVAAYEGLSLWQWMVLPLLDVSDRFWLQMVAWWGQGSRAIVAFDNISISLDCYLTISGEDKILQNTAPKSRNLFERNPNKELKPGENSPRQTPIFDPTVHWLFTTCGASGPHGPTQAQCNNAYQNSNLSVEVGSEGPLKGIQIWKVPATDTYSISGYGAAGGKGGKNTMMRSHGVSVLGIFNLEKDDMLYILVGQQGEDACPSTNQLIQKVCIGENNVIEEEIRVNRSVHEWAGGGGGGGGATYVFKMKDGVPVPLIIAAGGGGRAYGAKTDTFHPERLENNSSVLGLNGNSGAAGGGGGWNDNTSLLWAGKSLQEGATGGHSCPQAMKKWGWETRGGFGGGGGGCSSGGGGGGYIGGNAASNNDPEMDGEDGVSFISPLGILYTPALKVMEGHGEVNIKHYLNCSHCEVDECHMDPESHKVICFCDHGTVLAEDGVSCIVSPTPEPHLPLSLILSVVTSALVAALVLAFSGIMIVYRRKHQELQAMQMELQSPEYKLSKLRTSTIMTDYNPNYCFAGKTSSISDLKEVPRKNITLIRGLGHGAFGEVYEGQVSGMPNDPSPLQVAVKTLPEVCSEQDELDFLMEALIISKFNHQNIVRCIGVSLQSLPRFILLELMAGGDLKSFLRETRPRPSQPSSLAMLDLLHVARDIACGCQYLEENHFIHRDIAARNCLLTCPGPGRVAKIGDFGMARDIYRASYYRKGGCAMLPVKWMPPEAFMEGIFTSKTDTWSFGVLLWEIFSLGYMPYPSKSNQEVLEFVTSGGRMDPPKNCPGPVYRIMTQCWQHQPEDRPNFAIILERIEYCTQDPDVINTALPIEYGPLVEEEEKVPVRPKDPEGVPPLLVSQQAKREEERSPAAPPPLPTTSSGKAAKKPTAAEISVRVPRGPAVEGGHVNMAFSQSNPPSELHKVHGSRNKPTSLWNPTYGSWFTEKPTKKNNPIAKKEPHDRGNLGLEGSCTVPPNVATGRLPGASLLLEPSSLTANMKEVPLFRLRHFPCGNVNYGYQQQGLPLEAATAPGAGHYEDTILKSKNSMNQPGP

`COc1cc(N2CCC(N(C)C)CC2)ccc1Nc1ncc(Cl)c(Nc2ccccc2C(=O)C(N)=O)n1` was tested, and the IC50 was 27.9 nM.
